Measured values published in patent publication US7037914B2, “Carboxylic acid derivative and a pharmaceutical composition containing the derivative as active ingredient” (Ono Pharmaceutical Co., Ltd., priority 1998, dated 2006).

Columns and labels:
[1] = biological target: T1, human PPAR α (Homo sapiens, UniProt Q07869); assay: Luciferase assay using human PPAR α (Gal4-PPAR chimeric receptor in CV-1 cells); type: cell-based; details: compound 0.3 μM; luciferase activity of carbaprostacylin 10 μM defined as 1.0
T1 construct: expressed in transfected cells; host or cells: CV-1 cells
T1 sequence (Q07869 167-468): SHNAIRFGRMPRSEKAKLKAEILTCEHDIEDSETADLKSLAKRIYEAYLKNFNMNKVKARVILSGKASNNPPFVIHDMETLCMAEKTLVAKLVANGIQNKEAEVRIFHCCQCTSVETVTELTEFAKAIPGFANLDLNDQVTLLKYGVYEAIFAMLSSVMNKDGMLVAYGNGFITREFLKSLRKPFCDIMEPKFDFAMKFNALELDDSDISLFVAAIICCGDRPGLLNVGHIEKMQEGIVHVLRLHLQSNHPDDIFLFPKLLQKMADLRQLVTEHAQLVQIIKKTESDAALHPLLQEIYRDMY

[2] = system: SD rats; assay: Hypocholesterolemic and hypolipidemic effects in normal rats; type: in vivo; details: 10 mg/kg orally, hypercholesterolemic food, blood sampled next day
Excerpt: Hypocholesterolemic and hypolipidemic effects in normal rats:
Male, six-weeks old SD rats (seven rats per group) were left to take milled diet and water ad libitum and were acclimatized for 1 week.
At 9:00 on the first day of the experiment (Day 0) blood sampling was done from tail vein. The rats were divided into some groups by body weight, triglyceride(TG), non-esterified fatty acid (NEFA), total cholesterol (TC) values to minimize differences of the parameters among the groups. At 17:00 of the day the compound of the present invention suspended in 0.5% aqueous solution of carboxymethylcellulose (CMC) was orally administered at a dose of 10 mg/kg, and thereafter, with hypercholesterolemic food (5.5% peanut oil, 1.5% cholesterol and 0.5% cholic acid were mixed with milled CRF-1 diet, Charles River Inc.) was given to the rats.
At 9:00 of the next day, blood sampling was done from tail vein. The lipid values in blood (TG, NEFA and TC values) were measured.
There was no significant difference of the food intake between the control group (provided only 0.5% CMC) and the group treated with the compounds of the present invention.

[3] = system: KKAy/Ta mice; assay: Hypoglycemic and hypolipidemic effects in KKAy mice; type: in vivo; details: 3 days, food containing 0.03 % (w/w) compound, 38.9 mg/kg/day (converted)
Excerpt: Hypoglycemic and hypolipidemic effects in KKAy mice:
Male, 7-weeks old KKAy/Ta mice weighed from […] (seven mice per group) were pre-breaded for approximately one week and acclimatized for three days on milled diet. On the first day of the experiment (Day 0), mice were divided into some groups by weight, plasma glucose and triglyceride (TG) levels to minimize the differences among groups. From the next day for two days they were given compounds by food mixture containing 0.03 % (w/w) of the compound of the present invention or by milled diet only. At 13:00 of the third day, blood samples were collected and glucose and TG were measured. Additionally, there was no significant difference in the food intake between control group (milled diet only) and compounds-treated group (milled diet containing 0.03 % compounds).

[4] = biological target: T2, human PPAR γ (Homo sapiens, UniProt P37231); assay: Luciferase assay using human PPAR γ (Gal4-PPAR chimeric receptor in CV-1 cells); type: cell-based; details: compound 1.0 μM; luciferase activity of troglitazone 10 μM defined as 1.0
T2 construct: expressed in transfected cells; host or cells: CV-1 cells
T2 sequence (P37231 176-477 isoform P37231-2): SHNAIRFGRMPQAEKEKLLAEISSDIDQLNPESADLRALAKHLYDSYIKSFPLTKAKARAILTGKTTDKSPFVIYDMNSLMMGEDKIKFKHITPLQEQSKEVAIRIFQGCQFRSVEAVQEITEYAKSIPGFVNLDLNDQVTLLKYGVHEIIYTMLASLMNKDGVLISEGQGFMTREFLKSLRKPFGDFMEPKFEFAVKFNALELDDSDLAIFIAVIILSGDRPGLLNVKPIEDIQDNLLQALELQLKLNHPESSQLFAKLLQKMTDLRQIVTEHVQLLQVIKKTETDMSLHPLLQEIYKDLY

[5] = biological target: T3, human PPAR δ (Homo sapiens, UniProt Q03181); assay: Luciferase assay using human PPAR δ (Gal4-PPAR chimeric receptor in CV-1 cells); type: cell-based; details: luciferase activity with solvent containing no compound defined as 1.0
T3 construct: expressed in transfected cells; host or cells: CV-1 cells
T3 sequence (Q03181 139-441): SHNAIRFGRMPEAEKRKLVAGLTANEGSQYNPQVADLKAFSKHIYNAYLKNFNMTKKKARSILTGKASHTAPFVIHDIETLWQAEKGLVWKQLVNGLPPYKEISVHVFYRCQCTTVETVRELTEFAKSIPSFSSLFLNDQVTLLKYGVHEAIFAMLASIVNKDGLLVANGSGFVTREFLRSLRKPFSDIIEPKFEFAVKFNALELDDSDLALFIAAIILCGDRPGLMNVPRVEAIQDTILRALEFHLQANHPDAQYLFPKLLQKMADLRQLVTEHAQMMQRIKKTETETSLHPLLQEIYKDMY

`Cc1oc(-c2ccccc2)nc1CCOc1cccc(CCCC(=O)O)c1` [Example 2 (5), 4-(3-(2-(5-methyl-2-phenyloxazol-4-yl)ethoxy)phenyl)butanoic acid] was tested, and the “PPAR α agonist activity, Relative Activity” value [1] was 0.8.
For `O=C(O)CSCc1cccc(OCc2ccc(-c3ccccc3)cc2)c1` [Example 2 (11), 2-(3-(biphenyl-4-ylmethoxy)phenylmethylthio)acetic acid], the “PPAR α agonist activity, Relative Activity” value [1] was 3.2.
For `Cc1oc(-c2ccccc2)nc1CCOc1cccc(CSCC(=O)O)c1` [Example 2 (12), 2-(3-(2-(5-methyl-2-phenyloxazol-4-yl)ethoxy)phenylmethylthio)acetic acid], the TG value ([2]; control 147 ± 9) was 100 ± 14 mg/dL, the TC value ([2]; control 188 ± 5) was 70 ± 5 mg/dL and the NEFA value ([2]; control 489 ± 66) was 178 ± 14 μEq/l. For the same compound, the “PPAR α agonist activity, Relative Activity” value [1] was 1.7, the glycemic value ([3]; control 495 ± 35) was 214 ± 19 mg/dL and the TG value ([3]; control 558 ± 107) was 221 ± 66 mg/dL. The “PPAR γ agonist activity, Relative Activity” value [4] was 1.4.
In the case of `Cc1oc(-c2ccccc2)nc1CCOc1cccc(CC(=O)O)c1` [Example 2 (22)], the “PPAR δ agonist activity, relative activity” value ([5]; concentration 1.0 μM) is reported as 9.3 and the “PPAR δ agonist activity, relative activity” value ([5]; concentration 10.0 μM) is reported as 66.7.
For `Cc1oc(-c2ccc3c(c2)OCO3)nc1CCOc1cccc(CC(=O)O)c1` [Example 2 (93), 2-(3-(2-(5-methyl-2-(1,3-dioxaindan-5-yl)oxazol-4-yl)ethoxy)phenyl)acetic acid], the “PPAR δ agonist activity, relative activity” value ([5]; concentration 1.0 μM) was 36.1 and the “PPAR δ agonist activity, relative activity” value ([5]; concentration 10.0 μM) was 54.7.
